Results: ChEMBL document CHEMBL1130712, “Phenylpiperazine derivatives with strong affinity for 5HT1A, D2A and D3 receptors” (Bioorg Med Chem Lett, 1998)

How the values were obtained:
D(2) dopamine receptor = D(2) dopamine receptor (Homo sapiens, UniProt P14416); assay: Compound was measured for the binding affinity in homogenated mouse fibroblast (LTK) cells transfected with human Dopamine receptor D2A using [3H]raclopride as radioligand.
D(3) dopamine receptor = D(3) dopamine receptor (Homo sapiens, UniProt P35462); assay: Compound was measured for the binding affinity in chinese hamster ovary (CHO) cells transfected with human Dopamine receptor D3 using [3H]raclopride as radioligand; format: cell-based
[1] = molecular target: T1, 5-hydroxytryptamine receptor 1A (Rattus norvegicus, UniProt P19327); assay: Compound was measured for the inhibition of [3H]8-OH-DPAT binding to rat hippocampus membrane (5-HT1A receptor); format: tissue-based
T1 sequence (P19327 whole entry): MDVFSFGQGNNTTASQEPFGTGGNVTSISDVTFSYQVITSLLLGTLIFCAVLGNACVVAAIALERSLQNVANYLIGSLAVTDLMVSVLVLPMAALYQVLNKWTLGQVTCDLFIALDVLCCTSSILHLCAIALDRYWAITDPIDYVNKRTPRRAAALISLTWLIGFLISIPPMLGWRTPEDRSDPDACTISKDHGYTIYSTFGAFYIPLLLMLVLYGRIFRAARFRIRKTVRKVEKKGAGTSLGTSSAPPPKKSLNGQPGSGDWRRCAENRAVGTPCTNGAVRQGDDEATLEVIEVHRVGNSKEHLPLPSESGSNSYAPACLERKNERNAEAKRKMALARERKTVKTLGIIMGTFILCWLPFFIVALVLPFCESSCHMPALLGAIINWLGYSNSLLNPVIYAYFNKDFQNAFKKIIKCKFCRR

Chain of D(3) dopamine receptor (P35462 whole entry): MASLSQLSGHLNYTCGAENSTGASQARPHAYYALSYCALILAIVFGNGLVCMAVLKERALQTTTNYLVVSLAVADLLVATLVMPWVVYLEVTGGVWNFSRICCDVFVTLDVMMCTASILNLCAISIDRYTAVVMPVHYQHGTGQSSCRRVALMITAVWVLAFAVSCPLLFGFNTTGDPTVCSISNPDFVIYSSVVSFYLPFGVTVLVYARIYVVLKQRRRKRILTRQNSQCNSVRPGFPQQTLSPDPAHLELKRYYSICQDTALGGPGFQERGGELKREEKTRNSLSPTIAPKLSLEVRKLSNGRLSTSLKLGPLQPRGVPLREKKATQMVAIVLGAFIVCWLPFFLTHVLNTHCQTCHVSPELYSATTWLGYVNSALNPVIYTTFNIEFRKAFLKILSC
Chain of D(2) dopamine receptor (P14416 whole entry): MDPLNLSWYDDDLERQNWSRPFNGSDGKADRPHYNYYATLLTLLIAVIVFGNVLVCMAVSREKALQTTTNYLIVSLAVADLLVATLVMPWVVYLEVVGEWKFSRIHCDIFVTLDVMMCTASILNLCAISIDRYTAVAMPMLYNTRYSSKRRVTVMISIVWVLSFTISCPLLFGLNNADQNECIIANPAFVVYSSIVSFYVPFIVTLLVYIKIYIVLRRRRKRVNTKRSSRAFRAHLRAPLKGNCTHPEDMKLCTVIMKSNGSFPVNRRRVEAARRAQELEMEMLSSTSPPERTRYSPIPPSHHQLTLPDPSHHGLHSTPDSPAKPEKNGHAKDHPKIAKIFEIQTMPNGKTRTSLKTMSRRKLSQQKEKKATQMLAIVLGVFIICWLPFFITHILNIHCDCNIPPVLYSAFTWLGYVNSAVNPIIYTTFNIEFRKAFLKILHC

Ki (D(2) dopamine receptor) [nM]	Ki (D(3) dopamine receptor) [nM]	Ki [1] [nM]	Compound
16	49.7	5.61	O=c1ccc2ccc(OCCCN3CCN(c4ccccc4)CC3)cc2o1
5.92	44.7	5.31	Cc1c(C)c2ccc(OCCCN3CCN(c4ccccc4)CC3)cc2oc1=O
13.7	73.8	5.54	Cc1cc(=O)oc2cc(OCCCN3CCN(c4ccccc4)CC3)ccc12

Compound	Ki (D(2) dopamine receptor) [nM]	Ki (D(3) dopamine receptor) [nM]	Ki [1] [nM]
Cc1cc2ccc(OCCCN3CCN(c4ccccc4)CC3)cc2oc1=O	10.8	18.9	–
